Values of other authors as cited in US8158153B2, “Nanoparticulate bisphosphonate compositions” (Alkermes Pharma Ireland Limited, priority 2005, dated 2012).
“Also recorded” adds a separate entry of the source. Counter-ions that a name gives are not always drawn.

Assays:
[1] = patients; clinical use
[2] = 1% solution in distilled water

With `NCCC(O)(P(=O)([O-])O)P(=O)([O-])O.[Na+].[Na+]` [Pamidronate disodium, phosphonic acid (3-amino-1-hydroxypropylidene) bis-, disodium salt, pentahydrate] as the compound, how does the “side effects / adverse effects” value [1] read?
Its value is “esophageal ulcers; also recorded: pain at the site of catheter insertion; also recorded: gastrointestinal pain”.

And the “pH of a 1% solution” value [2]?
The value was “approximately 8.3”.

With `CCCCCN(C)CCC(O)(P(=O)([O-])O)P(=O)(O)O.O.[Na+]` [Ibandronate sodium, 3-(N-methyl-N-pentyl) amino-1-hydroxypropane-1,1-diphosphonic acid, monosodium salt, monohydrate] as the compound, how does the “side effects / adverse effects” value [1] read?
Its value is “gastrointestinal irritation”.

What about the “solubility in organic solvents” value (organic solvents) of the same compound?
The value was “practically insoluble”.

And the solubility in water?
The solubility in water was “freely soluble”.

For `CC(O)(P(=O)([O-])[O-])P(=O)(O)O.[Na+].[Na+]` [etidronate disodium, disodium salt of (1-hydroxyethylidene) diphosphonic acid], which solubility in water is on record?
The solubility in water was “highly soluble”.

For `O=P(O)(O)C(O)(Cc1cccnc1)P(=O)(O)O` [Risedronate sodium, [1-hydroxy-2-(3-pyridinyl)ethylidene]bis[phosphonic acid] monosodium salt], which “side effects / adverse effects” value [1] is on record?
Its value is “gastrointestinal irritation”.
